From publication PMC9090415, “Discovery of small molecule inhibitors of Plasmodium falciparum apicoplast DNA polymerase” (Journal of Enzyme Inhibition and Medicinal Chemistry, 2022)

Biological target: P. falciparum apicoplast DNA polymerase (Pf-apPOL) (Plasmodium falciparum, UniProt Q8ILY1)
Test: Fluorescence-based high-throughput DNA polymerase assay (molecular beacon), primary screen and dose-response
Assay type: biochemical
How it was run: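 Single-point screening used 10 µM compound with 20 nM polymerase, 20 nM hairpin substrate and 6 µM dNTPs for 90 min at 25 °C. Confirmatory titrations (2.5–80 µM) followed fluorescence at three times, and IC50 was derived from a fit including a cooperativity term n.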

P. falciparum apicoplast DNA polymerase (Pf-apPOL), sequence (Q8ILY1 entry or part of it): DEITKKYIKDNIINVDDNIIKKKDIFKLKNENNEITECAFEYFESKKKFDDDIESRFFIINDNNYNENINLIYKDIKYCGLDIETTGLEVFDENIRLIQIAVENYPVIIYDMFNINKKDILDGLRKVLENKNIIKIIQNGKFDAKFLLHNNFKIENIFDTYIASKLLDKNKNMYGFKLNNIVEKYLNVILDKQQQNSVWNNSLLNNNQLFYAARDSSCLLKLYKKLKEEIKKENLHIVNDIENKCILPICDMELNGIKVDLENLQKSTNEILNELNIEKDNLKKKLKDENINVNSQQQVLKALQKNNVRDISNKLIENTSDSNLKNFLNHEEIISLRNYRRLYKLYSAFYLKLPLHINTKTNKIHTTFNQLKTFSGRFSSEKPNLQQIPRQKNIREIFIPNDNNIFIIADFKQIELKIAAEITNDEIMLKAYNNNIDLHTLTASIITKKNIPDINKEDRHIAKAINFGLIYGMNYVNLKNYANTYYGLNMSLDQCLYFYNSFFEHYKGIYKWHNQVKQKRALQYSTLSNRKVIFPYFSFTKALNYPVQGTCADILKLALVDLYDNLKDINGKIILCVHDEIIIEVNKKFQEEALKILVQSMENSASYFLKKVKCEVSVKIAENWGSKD

## CN1CC(=Cc2ccco2)C(=O)C(=Cc2ccco2)C1 [Molecule 65, CN1CC(=Cc2ccco2)C(=O)C(=Cc2ccco2)C1]
'DNA Pol'; screening value, unit not given; 90 min, 10 µM
  DNA Pol: 69
DRC-1; 10'; concentration 2.5
  % inhibition Apo pol 10': 22.1284%
DRC-1; 10'; concentration 5
  % inhibition Apo pol 10': 42.6789%
DRC-1; 10'; concentration 10
  % inhibition Apo pol 10': 54.6654%
DRC-1; 10'; concentration 20
  % inhibition Apo pol 10': 60.4298%
DRC-1; 10'; concentration 40
  % inhibition Apo pol 10': 67.6613%
DRC-1; 10'; concentration 80
  % inhibition Apo pol 10': 69.4432%
DRC-1; 90'; concentration 2.5
  % inhibition Apol 90': 10.4669%
DRC-1; 90'; concentration 5
  % inhibition Apol 90': 22.0675%
DRC-1; 90'; concentration 10
  % inhibition Apol 90': 32.2145%
DRC-1; 90'; concentration 20
  % inhibition Apol 90': 39.744%
DRC-1; 90'; concentration 40
  % inhibition Apol 90': 50.5992%
DRC-1; 90'; concentration 80
  % inhibition Apol 90': 58.0625%
DRC-1; 180'; concentration 2.5
  % inhibition apPOL 180': 4.595%
DRC-1; 180'; concentration 5
  % inhibition apPOL 180': 8.893%
DRC-1; 180'; concentration 10
  % inhibition apPOL 180': 17.702%
DRC-1; 180'; concentration 20
  % inhibition apPOL 180': 24.3352%
DRC-1; 180'; concentration 40
  % inhibition apPOL 180': 38.0441%
DRC-1; 180'; concentration 80
  % inhibition apPOL 180': 50.1748%
DRC-2, 5', concentration 2.5
  % inhibition Apo pol 5': 27%
DRC-2, 5', concentration 5
  % inhibition Apo pol 5': 34%
DRC-2, 5', concentration 10
  % inhibition Apo pol 5': 42%
DRC-2, 5', concentration 20
  % inhibition Apo pol 5': 45%
DRC-2, 5', concentration 40
  % inhibition Apo pol 5': 49%
DRC-2, 5', concentration 80
  % inhibition Apo pol 5': 47%
DRC-2, 40', concentration 2.5
  % inhibition Apol 40': 21%
DRC-2, 40', concentration 5
  % inhibition Apol 40': 27%
DRC-2, 40', concentration 10
  % inhibition Apol 40': 37%
DRC-2, 40', concentration 20
  % inhibition Apol 40': 43%
DRC-2, 40', concentration 40
  % inhibition Apol 40': 52%
DRC-2, 40', concentration 80
  % inhibition Apol 40': 55%
DRC-2, 90', concentration 2.5
  % inhibition ApPOL 90': 17%
DRC-2, 90', concentration 5
  % inhibition ApPOL 90': 21%
DRC-2, 90', concentration 10
  % inhibition ApPOL 90': 32%
DRC-2, 90', concentration 20
  % inhibition ApPOL 90': 38%
DRC-2, 90', concentration 40
  % inhibition ApPOL 90': 50%
DRC-2, 90', concentration 80
  % inhibition ApPOL 90': 56%
DRC-2, 180', concentration 2.5
  % inhibition apPOL 180': 8%
DRC-2, 180', concentration 5
  % inhibition apPOL 180': 8%
DRC-2, 180', concentration 10
  % inhibition apPOL 180': 20%
DRC-2, 180', concentration 20
  % inhibition apPOL 180': 28%
DRC-2, 180', concentration 40
  % inhibition apPOL 180': 42%
DRC-2, 180', concentration 80
  % inhibition apPOL 180': 54%
Conc 2.5 (unit not given); 5'; DRC-2
  % inhibition Apo pol 5': 27%
Conc 2.5 (unit not given); 40'; DRC-2
  % inhibition Apol 40': 21%
Conc 2.5 (unit not given); 180'; DRC-2
  % inhibition apPOL 180': 8%
Conc 5 (unit not given); 40'; DRC-2
  % inhibition Apol 40': 27%
Conc 5 (unit not given); 90'; DRC-2
  % inhibition ApPOL 90': 21%
Conc 5 (unit not given); 180'; DRC-2
  % inhibition apPOL 180': 8%
Conc 10 (unit not given); 5'; DRC-2
  % inhibition Apo pol 5': 42%
Conc 40 (unit not given); 180'; DRC-2
  % inhibition apPOL 180': 42%
Primary screen hit value, DNA Pol (186 hits); 90 min, 10 µM
  DNA Pol: 69

## Cc1ccccc1NC(=O)Cn1ccc2c(=O)[nH]ccc21 [Molecule 50, O=C(Cn1ccc2c1cc[nH]c2=O)Nc1ccc(cc1)C]
'DNA Pol' of the 186 hits list (screen value); 90 min, 10 µM
  DNA Pol: 47
DRC-1; 10'; conc 2.5
  % inhibition Apo pol 10': 6.138%
DRC-1; 10'; conc 5
  % inhibition Apo pol 10': 25.5303%
DRC-1; 10'; conc 10
  % inhibition Apo pol 10': 50.7772%
DRC-1; 10'; conc 20
  % inhibition Apo pol 10': 84.6667%
DRC-1; 10'; conc 40
  % inhibition Apo pol 10': 88.6284%
DRC-1; 10'; conc 80
  % inhibition Apo pol 10': 86.1182%
DRC-1; 90'; conc 2.5
  % inhibition Apol 90': 0%
DRC-1; 90'; conc 5
  % inhibition Apol 90': 12.4445%
DRC-1; 90'; conc 10
  % inhibition Apol 90': 34.9563%
DRC-1; 90'; conc 20
  % inhibition Apol 90': 76.8341%
DRC-1; 90'; conc 40
  % inhibition Apol 90': 88.9511%
DRC-1; 90'; conc 80
  % inhibition Apol 90': 91.6504%
DRC-1; 180'; conc 2.5
  % inhibition apPOL 180': -5.117%
DRC-1; 180'; conc 5
  % inhibition apPOL 180': 1.53%
DRC-1; 180'; conc 10
  % inhibition apPOL 180': 18.0817%
DRC-1; 180'; conc 20
  % inhibition apPOL 180': 64.1474%
DRC-1; 180'; conc 40
  % inhibition apPOL 180': 85.8042%
DRC-1; 180'; conc 80
  % inhibition apPOL 180': 93.6476%
DRC-2; 5'; conc 2.5
  % inhibition Apo pol 5': 8%
DRC-2; 5'; conc 5
  % inhibition Apo pol 5': 16%
DRC-2; 5'; conc 10
  % inhibition Apo pol 5': 39%
DRC-2; 5'; conc 20
  % inhibition Apo pol 5': 47%
DRC-2; 5'; conc 40
  % inhibition Apo pol 5': 49%
DRC-2; 5'; conc 80
  % inhibition Apo pol 5': 42%
DRC-2; 5'; concentration 5
  % inhibition Apo pol 5': 16%
DRC-2; 40'; conc 2.5
  % inhibition Apol 40': 5%
DRC-2; 40'; conc 5
  % inhibition Apol 40': 16%
DRC-2; 40'; conc 10
  % inhibition Apol 40': 44%
DRC-2; 40'; conc 20
  % inhibition Apol 40': 64%
DRC-2; 40'; conc 40
  % inhibition Apol 40': 70%
DRC-2; 40'; conc 80
  % inhibition Apol 40': 67%
DRC-2; 40'; concentration 5
  % inhibition Apol 40': 16%
DRC-2; 90'; conc 2.5
  % inhibition ApPOL 90': 0.827%
DRC-2; 90'; conc 5
  % inhibition ApPOL 90': 13%
DRC-2; 90'; conc 10
  % inhibition ApPOL 90': 41%
DRC-2; 90'; conc 20
  % inhibition ApPOL 90': 65%
DRC-2; 90'; conc 40
  % inhibition ApPOL 90': 75%
DRC-2; 90'; conc 80
  % inhibition ApPOL 90': 73%
DRC-2; 180'; conc 2.5
  % inhibition apPOL 180': -4%
DRC-2; 180'; conc 5
  % inhibition apPOL 180': 2.7%
DRC-2; 180'; conc 10
  % inhibition apPOL 180': 29%
DRC-2; 180'; conc 20
  % inhibition apPOL 180': 60%
DRC-2; 180'; conc 40
  % inhibition apPOL 180': 78%
DRC-2; 180'; conc 80
  % inhibition apPOL 180': 78%
DRC-2; 180'; concentration 40
  % inhibition apPOL 180': 78%
DRC-2; 180'; concentration 80
  % inhibition apPOL 180': 78%
Primary screen value, "DNA Pol"; 90 min, 10 µM
  DNA Pol: 47

## O=C(O)c1cc([N+](=O)[O-])c(N2CCN(c3cccc(C(F)(F)F)c3)CC2)c([N+](=O)[O-])c1 [KU0076747]
DRC-1; concentration 2.5; 10'
  % inhibition Apo pol 10': 9.057%
DRC-1; concentration 2.5; 90'
  % inhibition Apol 90': 2.381%
DRC-1; concentration 2.5; 180'
  % inhibition apPOL 180': -1.314%
DRC-1; concentration 5; 10'
  % inhibition Apo pol 10': 24.3374%
DRC-1; concentration 5; 90'
  % inhibition Apol 90': 17.3572%
DRC-1; concentration 5; 180'
  % inhibition apPOL 180': 9.492%
DRC-1; concentration 10; 10'
  % inhibition Apo pol 10': 20.6042%
DRC-1; concentration 10; 90'
  % inhibition Apol 90': 12.0526%
DRC-1; concentration 10; 180'
  % inhibition apPOL 180': 7.5333%
DRC-1; concentration 20; 10'
  % inhibition Apo pol 10': 54.2328%
DRC-1; concentration 20; 90'
  % inhibition Apol 90': 47.5478%
DRC-1; concentration 20; 180'
  % inhibition apPOL 180': 35.8091%
DRC-1; concentration 40; 10'
  % inhibition Apo pol 10': 87.2694%
DRC-1; concentration 40; 90'
  % inhibition Apol 90': 81.5158%
DRC-1; concentration 40; 180'
  % inhibition apPOL 180': 74.4081%
DRC-1; concentration 80 (unit not given); 10'
  % inhibition Apo pol 10': 98.3006%
DRC-1; concentration 80; 90'
  % inhibition Apol 90': 92.5623%
DRC-1; concentration 80; 180'
  % inhibition apPOL 180': 89.3704%
DRC-2; 5'; concentration 10
  % inhibition Apo pol 5': 10%
DRC-2; 40'; concentration 2.5
  % inhibition Apol 40': 10%
DRC-2; 40'; concentration 40
  % inhibition Apol 40': 63%
DRC-2; 40'; concentration 80
  % inhibition Apol 40': 75%
DRC-2; 90'; concentration 2.5
  % inhibition ApPOL 90': 10%
DRC-2; 90'; concentration 40
  % inhibition ApPOL 90': 63%
DRC-2; 180'; concentration 80
  % inhibition apPOL 180': 75%
DRC-2; concentration 2.5; 5'
  % inhibition Apo pol 5': 9%
DRC-2; concentration 2.5; 40'
  % inhibition Apol 40': 10%
DRC-2; concentration 2.5; 90'
  % inhibition ApPOL 90': 10%
DRC-2; concentration 2.5; 180'
  % inhibition apPOL 180': 5%
DRC-2; concentration 5; 5'
  % inhibition Apo pol 5': 16%
DRC-2; concentration 5; 40'
  % inhibition Apol 40': 17%
DRC-2; concentration 5; 90'
  % inhibition ApPOL 90': 15%
DRC-2; concentration 5; 180'
  % inhibition apPOL 180': 8.45%
DRC-2; concentration 10; 5'
  % inhibition Apo pol 5': 10%
DRC-2; concentration 10; 40'
  % inhibition Apol 40': 8.56%
DRC-2; concentration 10; 90'
  % inhibition ApPOL 90': 8%
DRC-2; concentration 10; 180'
  % inhibition apPOL 180': 2.65%
DRC-2; concentration 20; 5'
  % inhibition Apo pol 5': 20%
DRC-2; concentration 20; 40'
  % inhibition Apol 40': 22%
DRC-2; concentration 20; 90'
  % inhibition ApPOL 90': 21%
DRC-2; concentration 20; 180'
  % inhibition apPOL 180': 12%
DRC-2; concentration 40; 5'
  % inhibition Apo pol 5': 54%
DRC-2; concentration 40; 40'
  % inhibition Apol 40': 63%
DRC-2; concentration 40; 90'
  % inhibition ApPOL 90': 63%
DRC-2; concentration 40; 180'
  % inhibition apPOL 180': 56%
DRC-2; concentration 80; 5'
  % inhibition Apo pol 5': 64%
DRC-2; concentration 80; 40'
  % inhibition Apol 40': 75%
DRC-2; concentration 80; 90'
  % inhibition ApPOL 90': 77%
DRC-2; concentration 80; 180'
  % inhibition apPOL 180': 75%
Primary screen value of the 186 hits; unit not given; 90 min, 10 µM
  DNA Pol: 52
Primary screen value; head prints only 'DNA Pol'; 90 min, 10 µM
  DNA Pol: 52
